Measured values as given in patent publication US10758513B2, “Modulators of mitochondrial protein import” (THE REGENTS OF THE UNIVERSITY OF CALIFORNIA, priority 2011, dated 2020).
pIC50: −log10 of the molar value. Values after ≈ are worked out from the molar mass of the structure shown.

How the values were obtained:
tim23 mutant = experiment: Yeast growth inhibition (MIC50), tim23 mutant; type: cell-based; settings: Saccharomyces cerevisiae; disrupted for prd5 and snq2
[1] = tested on: tim10-1 tim9S mitochondria; experiment: Membrane potential with rhodamine 123; type: biochemical, yeast; settings: 25 μM MitoBloCK-1; CCCP as control
Description: Membrane potential measurement assays were conducted with a SPEX spectrofluorometer system (HORIBA Jobin Yvon) with a magnetically stirred cuvette held at 25° C. The quenching of rhodamine 123 fluorescence (Em, =530 nm and Ex=485 nm) was used as previously described (9) to detect changes in mitochondrial membrane potential. Purified tim10-1 tim9S mitochondrial aliquots were thawed and resuspended in respiration buffer (0.65 M mannitol, 0.3 mM EGTA, 3 mm tris-phosphate, 10 mM tris-maleate, pH 6.75). Trials were started by adding 100 nM of rhodamine 123 to respiration buffer. After a period of signal stabilization, mitochondria were added to a concentration of 100 μg/mL. Either drug or DMSO was then added to a final vehicle concentration of 1% following the establishment of baseline quenched fluorescence. Finally, mitochondria were uncoupled with 3 μM CCCP.

HeLa cells [2] = experiment: MTT cell viability assay in HeLa cells (MitoBloCK-1); type: cell-based; settings: 25 μM and 50 μM, 24 hours
Description: Measurements of cell viability/toxicity were made with a MTT based toxicology assay kit (Sigma-Aldrich). HeLa cells were grown in 24-well tissue culture dishes to 80% confluency. […] Following drug treatment, cells were rinsed with phosphate buffered saline and incubated with complete media with MTT solution supplement for additional 4 hours as described in manufacturer's protocols. This media was removed and 500 μL of MTT solubilization solution was added to dissolve the formazan crystals. The formazan absorbance was measured at OD=570 nm on a Wallac Victor plate reader (Perkin Elmer) along with a turbidity measurement at OD=630 nm. After turbidity subtraction, the percent viability of each cell sample was calculated as: [(absorbance of vehicle treated cells−absorbance of drug treated cells)/(absorbance of vehicle treated cells)]×100.

Tim9-Tim10 complex = experiment: Crosslinking and immunoprecipitation of AAC with Tim9; type: biochemical, yeast; settings: 25 μM MitoBloCK-1; BMH crosslinker
Description: Crosslinking and immunoprecipitation experiments were derived from procedures previously utilized (3) with the inclusion of MitoBloCK-1 or DMSO. Following import, a portion of the reaction was subjected to crosslinking with 0.5 mM bis-maleimidohexane (BMH) for 30 minutes on ice. After quenching crosslinking reactions with 1 mM β-mercaptoethanol, a fraction of each sample was subjected to immunoprecipitation with polyclonal antibodies against either Tim9, Tom22, or Tom40. For each immunoprecipitation, 20 μL of antisera was bound to […], of protein A-sepharose slurry according to established protocols (Murphy M P, et al., (2001), Mol Cell Biol 21:6132-6138).

HeLa cells [3] = experiment: MTT cell viability assay in HeLa cells (MitoBloCK-6); type: cell-based; settings: 100 μM
Description: Measurements for cell viability were made with a MTT based toxicology assay kit (Sigma) as described previously (Hasson et al., 2010). Briefly, HeLa cells were grown in 24-well tissue culture dishes to 80% confluency. Cells were then treated with DMSO or MitoBloCK-6 in complete medium for 12 h and reacted with MTT solution supplement for additional 4 hr as described in manufacturer's protocols. Percentage viability of each cell sample was calculated as: [(absorbance of vehicle treated cells)−(absorbance of MitoBloCK-6 treated cells)/(absorbance of vehicle treated cells)]×100.

[4] = tested on: Δpdr5Δsnq2 strain overexpressing Erv1; experiment: Yeast growth inhibition (MIC50), Δpdr5Δsnq2 strain overexpressing Erv1; type: cell-based; settings: Saccharomyces cerevisiae; Δpdr5Δsnq2 overexpressing Erv1 from high copy plasmid
Description: For MIC50 analysis in the yeast strains, serial dilution of MitoBloCK-6 (0.5 μl) was pinned into assay plate wells containing 50 μl of yeast (Table 2) in rich ethanol-glycerol media (starting OD600=0.0002). Plates were then incubated at 25° C. in a humidified chamber for 40 hours. Each plate was shaken in a Beckman orbital shaker to resuspend settled cells, and the OD600 in each well was read by a Wallac Victor plate reader (Perkin Elmer).

zebrafish embryos = experiment: Zebrafish embryo development; type: in vivo
Description: Zebrafish used for o-dianisidine staining of red blood cells in DMSO and MitoBloCK-6 treated fish were albino lines generated from crosses of TL and TU fish. Line AB were injected with the ALR morpholino. Lines were maintained in a 14-hr light/10-hr dark cycle and mated for one hour to obtain synchronized embryonic development. […] Following treatment, embryos were imaged using a Leica MZ16F fluorescent stereoscope (TexasRed filter set) at 5× magnification. […] Embryos were allowed to mature to 2 dpf and then imaged like the MitoBloCK-6 treated embryos; embryos were imaged at day 2 because of concerns with morpholino dilution. Images were resized to 300 dpi without resampling using Adobe Photoshop software.

ALR = target: T1, ALR (Homo sapiens, UniProt P55789); experiment: In vitro ALR activity, Amplex Red-HRP assay; type: biochemical
T1 construct: Recombinant long form ALR, residues 1 to 205, was purified under native conditions; made in house
T1 sequence (P55789 whole entry, the tested form may be a part): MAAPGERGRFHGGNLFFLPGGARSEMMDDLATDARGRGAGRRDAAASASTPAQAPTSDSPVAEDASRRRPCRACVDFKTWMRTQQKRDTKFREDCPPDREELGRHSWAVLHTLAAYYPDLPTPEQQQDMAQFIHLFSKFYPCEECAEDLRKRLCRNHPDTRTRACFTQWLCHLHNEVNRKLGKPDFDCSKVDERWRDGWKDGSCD

Erv1 = target: T2, Erv1 (Saccharomyces cerevisiae, UniProt P27882); experiment: In vitro Erv1 oxidase activity, Amplex Red-HRP assay; type: biochemical, yeast
T2 construct: made in house
T2 sequence (P27882 1-189): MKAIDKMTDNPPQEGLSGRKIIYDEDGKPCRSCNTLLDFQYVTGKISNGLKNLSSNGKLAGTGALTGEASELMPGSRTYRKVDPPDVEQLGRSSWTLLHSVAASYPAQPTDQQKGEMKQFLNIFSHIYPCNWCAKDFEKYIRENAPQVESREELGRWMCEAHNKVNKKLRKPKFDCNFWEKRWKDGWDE
Description: The primary chemical screen used fresh recombinant Erv1 (in buffer 30 mM Hepes, pH 7.4, 100 mM NaCl, 1 mM EDTA) at a concentration of 10 μM, which was expressed as described previously. […] A Biomek FX (Beckman Coulter) was used to pin transfer 0.5 μl of compound from 1 mM stock or DMSO to respective wells. Approximate screening
concentration was 12.5 μM. After completed compound transfer, all plates were incubated at 25° C. in a humidified incubator for 1 hour. A Titertek multidrop was used to dispense 15 μl of Amplex Red-horseradish peroxidase (HRP) (Sigma) mix into all wells of the 384-well plate. The final concentration of Amplex Red and HRP were 46 μM and 0.092 U/ml, respectively. The Amplex Red-HRP solution was shielded from light during the entire experiment. The plates were incubated for an additional 10 min and then 15 μl of the substrate DTT (20 μM) was added to initiate the reduction of 02 to H2O2. […] Plates were then read at an endpoint using an excitation wavelength of 545 nm and an emission wavelength of 590 nm. […]
H2O2 production was measured using a standard fluorometric assay with Amplex Red and horseradish peroxidase (HRP). […] Fluorescence intensity was measured and reactions that were inhibited by more than 50% were picked as potential Erv1 inhibitors and selected for secondary analysis.

## NC(=S)N/N=C/c1c(O)c(Br)cc2oc3c(c12)CCCC3 [MitoBloCK-1]
tim23 mutant
  MIC50: > 200 µM
[1]
  rhodamine 123 fluorescence (membrane potential): did not change
HeLa cells [2]
  cell viability (MTT): significantly decreased in a dose-responsive manner
Tim9-Tim10 complex
  crosslinked Tim9-AAC product after immunoprecipitation: decreased

## Oc1c(Cl)cc(Cl)cc1/C=N/c1ccc(Nc2ccccc2)cc1 [MitoBloCK-6]
HeLa cells [3]
  cell viability (MTT): did not significantly reduce cell viability
[4]
  MIC50: 28.3 µM (≈ 10.1 µg/mL)
Zebrafish embryos; concentrations higher than 2.5 μM
  toxicity to fish: toxic to the fish
Zebrafish embryos; embryos treated with MitoBloCK-6 or ALR morpholino
  decreased heart rate: 50%
ALR
  pIC50: 6.15
Erv1
  pIC50: 6.05
